A word on the IC50: it is the concentration needed to halve the response being measured. In general, MIC90 refers to an inhibitory concentration at the 90% level, which refers to growth in some studies and to a panel of isolates in others. A high value points to weaker potency.

Here are results for 16 molecules from ChEMBL document CHEMBL2086295, “The design, synthesis, in silico ADME profiling, antiplasmodial and antimycobacterial evaluation of new arylamino quinoline derivatives” (Eur J Med Chem, 2012).

Structures are written as SMILES. Converted amounts (≈) assume the structure as drawn.

Data set [1] deals with Plasmodium falciparum. Briefly: Antiplasmodial against chloroquine-sensitive Plasmodium falciparum 3D7 assessed as inhibition of [3H]hypoxanthine incorporation after 24 hrs by scintillation counting. The class given is functional, organism-based.
Data set [2] relates to Plasmodium falciparum. As to the kind of experiment: Antiplasmodial against chloroquine-rsistant Plasmodium falciparum K1 assessed as inhibition of [3H]hypoxanthine incorporation after 24 hrs by scintillation counting. The class given is functional, organism-based.
Data set [3] relates to Plasmodium falciparum. As to the kind of experiment: Antiplasmodial against chloroquine-rsistant Plasmodium falciparum W2 after 2 days by flow cytometry. Type of data set: functional, organism-based. The conditions noted are these: W2, 48 h. For orientation: In flow cytometry, cells or beads pass a laser one at a time.
In data set [4] the test system is Mycobacterium tuberculosis. As to the kind of experiment: Antimycobacterial activity against Mycobacterium tuberculosis H37Rv ATCC 27294 after 7 days by microplate alamar blue assay. The class given is functional. The conditions noted are these: for MIC90: Mycobacterium tuberculosis, H37Rv ATCC 27294, 168 h. (In general: Alamar Blue is a resazurin reagent that responds to reducing activity.)

Data set [5] concerns Mycobacterium tuberculosis. As to the kind of experiment: Antimycobacterial activity against Mycobacterium tuberculosis H37Rv ATCC 27294 after 10 days by low oxygen recovery assay. The settings on record: for MIC90: Mycobacterium tuberculosis, H37Rv ATCC 27294, 240 h. The class given is functional.
Data set [6] can be described thus: Kinetic solubility of the compound at pH 7.4. The class given is physicochemical. The conditions noted are these: buffer, read-out: Kinetic_solubility.

For `COc1ccc2nccc(C(c3nnnn3C(C)(C)C)N(C)C)c2c1` (stereo not given), the IC50 in the data set with Plasmodium falciparum [1] is 1310 nM; in the data set with Plasmodium falciparum [2], 1310 nM; in the data set on Plasmodium falciparum [3] it was above 10000 nM. The “inhibition (INH)” value was 16% in data set [4] and 42% in data set [5]. Besides, the MIC90 in data set [4] and in data set [5] was above 128 µM each time. Moreover, the solubility kinetic in data set [6] turned out to be 189 µM (≈ 64.5 µg/mL).

For `CCN(CC)C(c1ccnc2ccc(OC)cc12)c1nnnn1C(C)(C)C` (stereo not given), the IC50 was 2390 nM in the data set with Plasmodium falciparum [1], 2390 nM in the data set on Plasmodium falciparum [2] and above 10000 nM in the data set with Plasmodium falciparum [3]. Moreover, the “inhibition (INH)” value is reported as 83% in data set [4] and 94% in data set [5]. The MIC90 in data set [4] was above 128 µM; in data set [5], 123 µM (≈ 45.4 µg/mL). For the same molecule, in data set [6], the solubility kinetic is 137 µM (≈ 50.4 µg/mL).

In the case of `COc1ccc2nccc(C(c3nnnn3C(C)(C)C)N3CCCC3)c2c1` (stereo not given), the figures for the IC50 with Plasmodium falciparum [1], in the data set on Plasmodium falciparum [2] and in the data set with Plasmodium falciparum [3] were 13800 nM, 13800 nM and above 10000 nM, respectively. For the same molecule, the “inhibition (INH)” value was 24% in data set [4] and 30% in data set [5]. Further, the MIC90 in data set [4] and in data set [5] was above 128 µM in each case.

Turning to `COc1ccc2nccc(C(c3nnnn3C(C)(C)C)N3CCCCC3)c2c1` (stereo not given), the IC50 with Plasmodium falciparum [1] is 647 nM; with Plasmodium falciparum [2], 2630 nM; in the data set with Plasmodium falciparum [3], above 10000 nM. Besides, the “inhibition (INH)” value in data set [4] was 98%; in data set [5], 64%. The values for the MIC90 in data set [4] and in data set [5] were 92.5 µM (≈ 35.2 µg/mL) and above 128 µM, respectively. The solubility kinetic in data set [6] was 114 µM (≈ 43.5 µg/mL).

Regarding `COc1ccc2nccc(C(c3nnnn3C(C)(C)C)N3CCN(C)CC3)c2c1` (stereo not given), the figures for the IC50 in the data set with Plasmodium falciparum [1], in the data set with Plasmodium falciparum [2] and with Plasmodium falciparum [3] were 16800 nM, 7950 nM and 8390 nM, respectively. For the same molecule, the “inhibition (INH)” value in data set [4] and in data set [5] was 0% in each case. Besides, the MIC90 in data set [4] and in data set [5] was above 128 µM each time.

Consider `COc1ccc2nccc(C(c3nnnn3C(C)(C)C)N3CCOCC3)c2c1` (stereo not given), for which the results for the concentration for half-maximal inhibition (IC50) with Plasmodium falciparum [1], in the data set with Plasmodium falciparum [2] and with Plasmodium falciparum [3] were 980 nM, 1230 nM and above 10000 nM, respectively. The results for the “inhibition (INH)” value in data set [4] and in data set [5] were 0% and 32%, respectively. For the same molecule, the MIC90 in data set [4] and in data set [5] was above 128 µM each time. Moreover, the solubility kinetic in data set [6] was determined as 179 µM (≈ 68.3 µg/mL).

As to `COc1ccc2nccc(C(c3nnn[nH]3)N3CCOCC3)c2c1` (stereo not given), the IC50 in the data set with Plasmodium falciparum [1] was 8620 nM; in the data set with Plasmodium falciparum [2], 6740 nM; in the data set on Plasmodium falciparum [3] it was above 10000 nM. In addition, the results for the “inhibition (INH)” value in data set [4] and in data set [5] were 0% and 1%, respectively. The MIC90 in data set [4] and in data set [5] was above 128 µM each time. For the same molecule, the solubility kinetic in data set [6] is 202 µM (≈ 65.9 µg/mL).

Consider `CN(C)C(c1cc(C(F)(F)F)nc2c(C(F)(F)F)cccc12)c1nnnn1C(C)(C)C` (stereo not given), for which the IC50 in the data set on Plasmodium falciparum [2] was determined as 4520 nM. The MIC90 in data set [4] was above 160 µM.

For the molecule `CCN(CC)C(c1cc(C(F)(F)F)nc2c(C(F)(F)F)cccc12)c1nnnn1C(C)(C)C` (stereo not given), in the data set on Plasmodium falciparum [2], the IC50 was found to be 2320 nM. The MIC90 in data set [4] was above 160 µM.

Consider `O[C@@H](c1cc(C(F)(F)F)nc2c(C(F)(F)F)cccc12)[C@H]1CCCCN1` (relative stereo) [(S,R)-MEFLOQUINE], for which the MIC90 in data set [4] came out at 10 µM (≈ 3.78 µg/mL).

Consider `NNC(=O)c1ccncc1` [ISONIAZID], for which, in data set [4], the “inhibition (INH)” value was 92% and the MIC90 stood at 0.23 µM (≈ 0.0315 µg/mL). Besides, in data set [5], the “inhibition (INH)” value is 64% and the MIC90 was above 128 µM.

`NC[C@H]1O[C@H](O[C@H]2[C@H](O)[C@@H](O[C@H]3O[C@H](CO)[C@@H](O)[C@H](N)[C@H]3O)[C@H](N)C[C@@H]2N)[C@H](O)[C@@H](O)[C@@H]1O` [KANAMYCIN] yielded an MIC90 in data set [4] of 3.12 µM (≈ 1.51 µg/mL).

On to `O=[N+]([O-])c1cn2c(n1)OC[C@@H](OCc1ccc(OC(F)(F)F)cc1)C2` [PRETOMANID], for which, in data set [4], the “inhibition (INH)” value turned out to be 99% and the MIC90 is 0.12 µM (≈ 0.0431 µg/mL). Further, in data set [5], the “inhibition (INH)” value came out at 100% and the MIC90 is 3.78 µM (≈ 1.36 µg/mL).

With `C=C[C@H]1CN2CC[C@H]1C[C@H]2[C@H](O)c1ccnc2ccc(OC)cc12` [QUININE], the IC50 is 0.7 nM in the data set with Plasmodium falciparum [1], 20.4 nM with Plasmodium falciparum [2] and 18.7 nM with Plasmodium falciparum [3]. Moreover, the “inhibition (INH)” value in data set [4] is reported as 95%; in data set [5], 98%. Also, the MIC90 in data set [4] came out at 120 µM (≈ 38.8 µg/mL); in data set [5] it was 122 µM (≈ 39.6 µg/mL).

Take `CO[C@H]1/C=C/O[C@@]2(C)Oc3c(C)c(O)c4c(O)c(c(/C=N/N5CCN(C)CC5)c(O)c4c3C2=O)NC(=O)/C(C)=C\C=C\[C@H](C)[C@H](O)[C@@H](C)[C@@H](O)[C@@H](C)[C@H](OC(C)=O)[C@@H]1C` [RIFAMPIN]: the “inhibition (INH)” value in data set [4] was 100%; in data set [5], 98%. Moreover, the MIC90 in data set [4] came to 0.05 µM (≈ 0.0411 µg/mL); in data set [5], 1.93 µM (≈ 1.59 µg/mL).

In data set [4], `CN[C@@H]1[C@H](O[C@H]2[C@H](O[C@H]3[C@H](O)[C@@H](O)[C@H](N=C(N)N)[C@@H](O)[C@@H]3N=C(N)N)O[C@@H](C)[C@]2(O)C=O)O[C@@H](CO)[C@H](O)[C@H]1O` [STREPTOMYCIN] registered an MIC90 of 0.4 µM (≈ 0.233 µg/mL).
